# According to patent publication US11090305B2, “Methods and compositions to reduce oxidative stress” (University of Massachusetts, priority 2009, dated 2021):
# Tests used:
# Type in all cases: in vivo, mouse
# [1] = tested on: HSCs; assay: Competitive HSC transplantation, bone marrow repopulation; settings: ApoE^−/− donor mice treated before HSC harvest (NAC 4 weeks; SB203580, PD98059 2 weeks)
# Procedure: HSC were purified from freshly harvested bone marrow mononuclear cells as c-Kit^+Sca-1^+CD90.1^lowLin^− by FACS sorting. Recipient mice were C57BL/6 (WT) on standard chow. Recipients underwent lethal irradiation (1100 Rads delivered in 2 doses 3 hr apart). Immediately after the 2nd irradiation, recipients were anesthetized (2% isoflurane) and 10^6 HSC/0.1 ml sterile PBS were transplanted via retro-orbital injection. Mice were followed for 12 weeks before study or administration of AOM.
# The functional consequence of this loss of quiescence by competitive transplantation was investigated next, insofar as the presence of quiescent HSC are critical for successful bone marrow reconstitution. HSCs from CD45.2 ApoE^−/− or HCD mice were mixed 1:1 with CD45.1 WT HSCs and then transplanted into lethally irradiated CD45.1 WT recipients.
# Activation of p38 MAPK reduces HSC quiescence in Atm^−/− mice. To evaluate this phenomena in hypercholesterolemic mice, ApoE^−/− and WT mice were treated with the selective p38 MAPK inhibitor SB203580 or the MEK 1 inhibitor PD98059 for 2 weeks prior to harvest of HSCs for transplant. CD45.2 ApoE^−/− or WT HSCs with mixed 1:1 with CD45.1 WT HSCs and transplanted into lethally irradiated CD45.1 recipient mice.
# [2] = tested on: Notch1; assay: Notch1 expression in HSCs and lymphoid progenitors (Example 5)
# Procedure: (§1) Cells were stained with monoclonal antibodies conjugated to various fluoroprobes. These antibodies included: Notch1, cKit (2B8), Sca-1 (E13-161.7), CD4 (L3T4), CD8 (53-6.72), CD90.1, CD25, CD44, TCRβ, NK1.1, γδTCR, CD45.1, CD45.2. The lineage cocktail consisted of CD4, CD8, B220 (RA3-6B2), TER-119, Mac-1 (MI/70), and Gr-1 (RB6-8C5). All antibodies were purchased from BD Bioscience (San Diego, Calif.). FACS analysis was carried out on a FACS Diva.
# The Notch family is an evolutionarily conserved system of receptors and ligands that play a fundamental role in regulating cell-fate decision in many types of stem and progenitor cells, including HSCs. Notch1 plays a critical role in lymphocyte differentiation, wherein expression of Notch1 favors T cell differentiation. To clarify the effects of hypercholesterolemia on the expression Notch family, the expression of Notch family was screened in HSCs isolated from WT and ApoE^−/− mice. The percentage of HSCs expressing of Notch1 was higher in hypercholesterolemic than WT mice, whereas no differences in Notch2, Notch4, or Delta-like-1 were noted among groups (FIG. 47A). FIGS. 47A-47D show notch 1 expression is greater in HSCs from hypercholesterolemic mice. […] (B) Within the HSC population, a higher percentage of long term-HSCs expressed Notch1 than did short term-HSCs. This difference was evident in both WT and ApoE^−/− mice, although the percentage of short term-HSCs expressing Notch1 was twofold higher in ApoE^−/− than WT mice. […] (D) Treatment of ApoE^−/−, but not WT mice with SB203580 reduced the percentage of HSCs expressing Notch1. m±sd, n=5, *p<0.05 vs. WT, †p<0.05 vs. ApoE or HCD, p<0.05 vs. long-term HSCs.
# [3] = tested on: NKT and γδT cells; assay: NKT and γδT cell populations (flow cytometry, immunostaining); settings: hypercholesterolemic mice, 4 weeks
# Description: All mice were purchased from Jackson Laboratories (Bar Harbor, Me.) and were maintained in the mouse barrier facility. Care of mice was in accordance with NIH guidelines and the Institutional Animal Care and Use Committee of the University of Massachusetts Medical School approved all protocols. Mice were kept on a 12 hr day/night schedule and were allowed free access to chow and water. ApoE^−/− and WT mice were fed standard mouse chow (5.4 g fat/100 g diet, 0% cholesterol). HCD mice were fed a diet with 10 g fat/100 g diet, […] (Research Diets, New Brunswick, N.J.). […] Azoxymethane (AOM) was given by intraperitoneal injection (10 mg/Kg weekly for 3 weeks); 1% dextran sodium sulfate was added to the drinking water for the Pt week after AOM treatment.
# as §1
# The colon and rectum was removed en bloc from each mouse and the number of polyps was identified using a dissecting microscope. Each polyp was frozen in OCT at −80° C. and cryosections (10 μM) cut. H&E staining was used to identify the histological grade of each polyp, assigned by a pathologist blinded to study condition. Standard immunostaining protocol was used to identify γδT cells (monoclonal antibody to γδTCR, DAPI counterstaining) and NKT cells (monoclonal antibodies to TCR and NK1.1, DAPI counterstaining). Sections were viewed with a Zeiss immunofluorescent microscope and Axiovert software.
smiles,measurement,setting,value
"CC(=O)N[C@@H](CS)C(=O)O [NAC, N-acetylcysteine]",percentage of CD45.2^+ bone marrow mononuclear cells 12 weeks after competitive transplantation,[1],significantly increased the percentage of CD45.2^+ mononuclear cells in recipient bone marrow
same,percentages of pre-B cells and pro-T cells expressing Notch1,"[2]; ApoE^−/− mice, in vivo treatment",these effects were reversed by in vivo treatment with NAC
same,percentage of HSCs expressing Notch1,[2]; WT mice,no effect was noted in WT mice
same,percentage of HSCs expressing Notch1,"[2]; hypercholesterolemic mice (ApoE^−/−, HCD), in vivo treatment",significantly reduced the percentage of ApoE^−/− and HCD HSCs expressing Notch1
same,colonic resident populations of NKT and γδT cells,[3]; healthy colon,restored the colonic resident populations of NKT and γδT cells to WT levels
same,numbers of NKT and γδT cells in AOM-induced polyps,[3],significantly increased the numbers of NKT and γδT cells in all grades of AOM-induced polyps
same,percentages of γδT cells and NKT cells in the thymus and peripheral blood,[3],reversed by in vivo treatment with NAC for 4 weeks
